The values below come from US20190133933A1, “FORMULATIONS AND METHODS FOR REDUCTION OF INTRAOCULAR PRESSURE” (CLEARSIDE BIOMEDICAL, INC., priority 2016, published 2019).

For the test, the system named is normotensive dogs. The experiment in a line: Poststudy efficacy challenge: single topical ocular dose, IOP followed for 24 hours. In kind it is in vivo, female beagle dogs. On the procedure: IOP was measured by using a TonoVet according to a study-specific procedure. IOP measurements consisted of three independent readings per eye per time point from each eye. Following approximately 4 weeks of washout, animals in both groups were administered latanoprost in the right eye and phosphate-buffered saline (PBS) in the left eye, and IOP measurements were followed for 24 hours. As applicable, the dosing solution was drawn up into a 1-mL luer-lock syringe using a standard 21-gauge, 1-inch needle. Bubbles were expressed and the standard needle was replaced by a 30-gauge microneedle 1100 μm in length. […] Following the injection, the needle was kept in the eye for approximately 10 seconds before being withdrawn. Upon withdrawal of the microneedle, a cotton-tipped applicator (CTA, dose wipe) was placed over the injection site for approximately 10 seconds. The right eye was dosed first and all post-dose times were based on the time of dosing of the second (left) eye.
Approximately 8 weeks after dose administration, all animals underwent a poststudy efficacy challenge. A positive displacement pipette was used to administer a single 35-μL dose of latanoprost to the right eye and phosphate-buffered saline (PBS) to the left eye. IOP was measured prior to dose administration (approximately −1 and 0 hours), and at 2, 4, 6, 8, and 24 hours following treatment. […]

Consider `CC(C)OC(=O)CCC/C=C\C[C@@H]1[C@@H](CC[C@@H](O)CCc2ccccc2)[C@H](O)C[C@@H]1O` [Latanoprost], for which the “effect on IOP” value (right eyes vs PBS left eyes kept at about baseline (FIGS. 13-16)) was “decreased the IOP”. Further, the “mean maximum effective decrease (Emax) in IOP values” (single 35-μL topical ocular dose, right eye, Groups 1 and 2) is recorded as 3-5 mm Hg.
